These results are taken from PMC9578396, “Intrinsic Antibacterial Activity of Xeruborbactam In Vitro: Assessing Spectrum and Mode of Action” (Antimicrobial Agents and Chemotherapy, 2022).

The structures appear in SMILES notation. Values after ≈ are worked out from the molar mass of the structure shown. Read-outs that look alike come from different tables or passages of the source.

In one assay the test system is Enterobacterales. Description: Broth microdilution MIC (CLSI), Enterobacterales. Type of assay: cell-based. From the text: (§1) Bacterial isolates were subjected to broth microdilution susceptibility testing, performed according to Clinical and Laboratory Standards Institute (CLSI) methods ([46]), using panels prepared in-house. Meropenem was purchased from Sandoz, and all other antibiotics were from Sigma-Aldrich. Xeruborbactam was synthesized at Qpex Biopharma, San Diego, CA. Avibactam was purchased from eNovation Chemicals LLC, Bridgewater, NJ, USA; zidebactam was from MedKoo Biosciences, Inc., Morrisville, NC, and nacubactam was from Advanced ChemBlocks, Hayward, CA. Durlobactam was synthesized at Acme Bioscience, Palo Alto, CA, USA.
(In general: In broth dilution the organism is exposed to a series of concentrations in liquid medium.)

In another assay the test system is Serratia marcescens. Description: Broth microdilution MIC (CLSI), Serratia marcescens. Type of assay: cell-based. The note with it: 10 isolates.
Description: as §1

Assay [1] has as its system strain ECM5497 of E. coli. Briefly: Minimal bactericidal concentration (MBC), E. coli. Type of assay: cell-based. The following applies: Escherichia coli.
The test system of assay [2] is strain AB1007 of A. baumannii. Description: Minimal bactericidal concentration (MBC), A. baumannii. Type of assay: cell-based. The following applies: Acinetobacter baumannii.
Assay [3] addresses T1, PBP3 (Escherichia coli, UniProt P0AD68).
T1 construct: endogenous in cells; host or cells: Escherichia coli ECM5497 (MG1655), total membrane preparation
Description: Gel-based Bocillin FL competition PBP binding assay. The protocol: (§2) Ten milliliters of overnight bacterial culture was inoculated in 1 L of LB medium and grown to an OD600 of 0.7 to 0.9. The cell pellet was washed once with 50 mL of solution containing 100 mM Na-phosphate at pH 7.0 and 100 mM NaCl and resuspended in 10 mL of the same buffer with one tablet of EDTA-free mini-protease inhibitor and 10 mg of lysozyme. Cell suspensions were incubated for 45 min at 37°C, and then 200 μL of DNase I was added along with MgSO4 (to a final concentration of 10 mM), followed by three cycles of freeze-thawing (10 min and 20 min, respectively). Four cycles of sonication at maximum power were performed next, each cycle lasting for 30 s with 1 min on ice between cycles. The cell suspension was centrifuged at 12,000 × g for 10 min at 4°C. The supernatant was collected and centrifuged at 100,000 × g for 45 min at 4°C. The pellet was washed three times with 10 mL of 100 mM Na-phosphate, pH 7.0, by resuspension and subsequent centrifugation at 100,000 × g for 10 min at 4°C. The pellet was finally resuspended in 1.5 mL of 100 mM Na-phosphate, pH 7.0, and passed several times through a Dounce homogenizer (tight pestle). […]
(§3) Five microliters of total bacterial membrane preparation was mixed with 5 μL of a test compound at a desired concentration in 100 mM Na-phosphate buffer, pH 7.0. […] IC50 values were calculated with Prism software (GraphPad).

Assay [4] addresses PBP1a/PBP1b, PBP2, and PBP3. Description: Bocillin FL competition PBP binding assay, summary for two species. The note with it: PBP2, and PBP3 from E. coli and K. pneumoniae, read-out: IC50 range. The protocol:
as §2, §3

Assay [5] has as its target T2, PBP1a (Escherichia coli, UniProt P02918).
T2 construct: Five microliters of total bacterial membrane preparation was mixed with 5 μL of a test compound; endogenous in cells; host or cells: Escherichia coli ECM5497 (MG1655), total membrane preparation
On the set-up: method as in PMID 18250190. The following applies: read-out: IC50, PBP1a; value in parentheses; E. coli MC1400; cited from earlier work.

Assay [6] concerns the target T3, PBP1b (Escherichia coli, UniProt P02919).
T3 construct: Five microliters of total bacterial membrane preparation was mixed with 5 μL of a test compound; endogenous in cells; host or cells: Escherichia coli ECM5497 (MG1655), total membrane preparation
More on the design: method as in PMID 18250190. The following applies: read-out: IC50, PBP1b; value in parentheses; E. coli MC1400; cited from earlier work.

Another assay relates to PBP2. More on the design: method as in PMID 18250190. The following applies: value in parentheses; E. coli MC1400; cited from earlier work.
Assay [7] concerns PBP1b. More on the design: method as in earlier work. The following applies: value in parentheses; A. baumannii ATCC 19606; cited from earlier work.
For assay [8], the target named is PBP3 (Acinetobacter baumannii, UniProt A0ABX6CK25). On the set-up: method as in earlier work. The note with it: read-out: IC50, PBP3; value in parentheses; A. baumannii ATCC 19606; cited from earlier work.
The target of assay [9] is T4, PBP1a (Pseudomonas aeruginosa, UniProt Q07806).
T4 construct: Five microliters of total bacterial membrane preparation was mixed with 5 μL of a test compound; endogenous in cells
On the set-up: method as in PMID 18250190. The following applies: value in parentheses; P. aeruginosa PAO1; cited from earlier work.

Where [10] appears, read: Enterobacterales, 1,028 isolates.

T1 sequence (P0AD68 whole entry): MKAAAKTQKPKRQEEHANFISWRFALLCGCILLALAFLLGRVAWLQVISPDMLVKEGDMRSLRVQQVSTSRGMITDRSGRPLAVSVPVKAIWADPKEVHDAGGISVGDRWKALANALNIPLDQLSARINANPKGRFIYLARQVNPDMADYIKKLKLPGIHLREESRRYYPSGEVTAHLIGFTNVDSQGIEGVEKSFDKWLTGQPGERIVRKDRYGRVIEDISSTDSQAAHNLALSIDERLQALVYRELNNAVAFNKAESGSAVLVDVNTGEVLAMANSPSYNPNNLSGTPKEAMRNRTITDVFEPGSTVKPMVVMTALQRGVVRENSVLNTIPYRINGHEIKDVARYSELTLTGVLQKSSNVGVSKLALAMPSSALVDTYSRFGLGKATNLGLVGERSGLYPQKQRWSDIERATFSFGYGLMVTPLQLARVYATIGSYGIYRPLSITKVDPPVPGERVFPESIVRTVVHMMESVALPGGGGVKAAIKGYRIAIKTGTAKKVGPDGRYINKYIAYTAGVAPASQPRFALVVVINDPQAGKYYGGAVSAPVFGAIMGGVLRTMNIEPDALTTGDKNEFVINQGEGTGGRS
T4 sequence (Q07806 whole entry): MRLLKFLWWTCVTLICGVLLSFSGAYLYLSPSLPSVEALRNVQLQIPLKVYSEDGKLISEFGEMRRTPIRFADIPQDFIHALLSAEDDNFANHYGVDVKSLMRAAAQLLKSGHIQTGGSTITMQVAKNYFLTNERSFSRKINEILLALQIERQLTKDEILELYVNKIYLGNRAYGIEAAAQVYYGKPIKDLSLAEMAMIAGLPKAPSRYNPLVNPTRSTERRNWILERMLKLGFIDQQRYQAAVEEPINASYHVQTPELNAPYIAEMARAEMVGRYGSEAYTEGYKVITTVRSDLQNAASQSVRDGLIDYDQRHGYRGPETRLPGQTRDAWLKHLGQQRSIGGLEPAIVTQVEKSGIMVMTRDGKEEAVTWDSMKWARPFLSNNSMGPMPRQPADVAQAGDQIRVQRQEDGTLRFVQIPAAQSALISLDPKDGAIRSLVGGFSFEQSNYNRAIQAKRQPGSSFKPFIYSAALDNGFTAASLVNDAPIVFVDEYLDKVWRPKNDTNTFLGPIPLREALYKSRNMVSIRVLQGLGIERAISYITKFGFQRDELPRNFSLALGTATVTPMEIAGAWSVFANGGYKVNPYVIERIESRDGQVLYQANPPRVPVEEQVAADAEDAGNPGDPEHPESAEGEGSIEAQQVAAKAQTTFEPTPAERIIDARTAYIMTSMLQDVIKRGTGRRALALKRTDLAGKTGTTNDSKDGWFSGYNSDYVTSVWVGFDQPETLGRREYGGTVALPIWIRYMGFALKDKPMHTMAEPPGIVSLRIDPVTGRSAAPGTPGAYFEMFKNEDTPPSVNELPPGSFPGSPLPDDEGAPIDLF
T2 sequence (P02918 whole entry): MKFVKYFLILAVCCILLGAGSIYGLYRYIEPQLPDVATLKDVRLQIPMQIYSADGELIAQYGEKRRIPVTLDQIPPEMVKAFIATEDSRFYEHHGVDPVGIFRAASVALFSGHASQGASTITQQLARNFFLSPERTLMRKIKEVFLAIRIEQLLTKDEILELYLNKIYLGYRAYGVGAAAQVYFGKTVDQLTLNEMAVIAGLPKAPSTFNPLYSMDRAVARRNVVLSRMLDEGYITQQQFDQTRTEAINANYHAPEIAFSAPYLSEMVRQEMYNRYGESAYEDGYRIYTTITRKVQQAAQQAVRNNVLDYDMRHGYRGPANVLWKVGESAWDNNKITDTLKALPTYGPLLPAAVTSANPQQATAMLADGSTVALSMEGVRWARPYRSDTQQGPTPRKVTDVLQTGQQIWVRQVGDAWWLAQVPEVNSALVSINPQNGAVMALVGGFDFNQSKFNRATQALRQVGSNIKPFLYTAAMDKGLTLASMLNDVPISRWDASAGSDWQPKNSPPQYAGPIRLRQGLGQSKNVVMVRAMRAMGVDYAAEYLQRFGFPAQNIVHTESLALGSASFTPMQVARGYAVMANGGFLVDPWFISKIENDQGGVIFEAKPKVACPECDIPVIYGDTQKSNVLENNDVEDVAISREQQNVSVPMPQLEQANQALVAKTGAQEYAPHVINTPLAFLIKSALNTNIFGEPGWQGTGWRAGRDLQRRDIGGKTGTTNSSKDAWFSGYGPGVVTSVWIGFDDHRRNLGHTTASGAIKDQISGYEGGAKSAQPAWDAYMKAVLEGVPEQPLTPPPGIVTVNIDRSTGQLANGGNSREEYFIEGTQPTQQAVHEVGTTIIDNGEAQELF
T3 sequence (P02919 whole entry): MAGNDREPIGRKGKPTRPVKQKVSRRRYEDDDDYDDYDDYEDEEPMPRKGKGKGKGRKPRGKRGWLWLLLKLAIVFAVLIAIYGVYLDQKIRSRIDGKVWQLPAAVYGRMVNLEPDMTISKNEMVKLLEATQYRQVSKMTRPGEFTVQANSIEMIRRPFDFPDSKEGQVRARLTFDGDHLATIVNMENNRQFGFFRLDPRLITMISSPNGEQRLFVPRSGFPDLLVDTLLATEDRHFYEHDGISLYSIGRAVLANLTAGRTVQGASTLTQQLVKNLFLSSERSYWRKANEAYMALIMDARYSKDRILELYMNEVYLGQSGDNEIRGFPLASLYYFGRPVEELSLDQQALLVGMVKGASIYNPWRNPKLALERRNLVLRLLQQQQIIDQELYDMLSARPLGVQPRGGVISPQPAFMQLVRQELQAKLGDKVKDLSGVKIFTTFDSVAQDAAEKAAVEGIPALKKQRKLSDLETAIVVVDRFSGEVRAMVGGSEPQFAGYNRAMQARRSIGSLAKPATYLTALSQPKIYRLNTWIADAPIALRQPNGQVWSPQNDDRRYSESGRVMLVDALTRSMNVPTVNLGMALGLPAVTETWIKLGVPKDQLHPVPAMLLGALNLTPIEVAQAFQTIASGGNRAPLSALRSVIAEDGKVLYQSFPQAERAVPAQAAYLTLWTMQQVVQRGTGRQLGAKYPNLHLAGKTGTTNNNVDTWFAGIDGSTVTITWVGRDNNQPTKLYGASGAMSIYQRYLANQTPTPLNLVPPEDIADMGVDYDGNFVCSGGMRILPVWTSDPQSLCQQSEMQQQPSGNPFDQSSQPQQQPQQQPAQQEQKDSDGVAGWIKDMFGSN
Chain of PBP3 (Acinetobacter baumannii, UniProt A0ABX6CK25) (A0ABX6CK25 entry or part of it): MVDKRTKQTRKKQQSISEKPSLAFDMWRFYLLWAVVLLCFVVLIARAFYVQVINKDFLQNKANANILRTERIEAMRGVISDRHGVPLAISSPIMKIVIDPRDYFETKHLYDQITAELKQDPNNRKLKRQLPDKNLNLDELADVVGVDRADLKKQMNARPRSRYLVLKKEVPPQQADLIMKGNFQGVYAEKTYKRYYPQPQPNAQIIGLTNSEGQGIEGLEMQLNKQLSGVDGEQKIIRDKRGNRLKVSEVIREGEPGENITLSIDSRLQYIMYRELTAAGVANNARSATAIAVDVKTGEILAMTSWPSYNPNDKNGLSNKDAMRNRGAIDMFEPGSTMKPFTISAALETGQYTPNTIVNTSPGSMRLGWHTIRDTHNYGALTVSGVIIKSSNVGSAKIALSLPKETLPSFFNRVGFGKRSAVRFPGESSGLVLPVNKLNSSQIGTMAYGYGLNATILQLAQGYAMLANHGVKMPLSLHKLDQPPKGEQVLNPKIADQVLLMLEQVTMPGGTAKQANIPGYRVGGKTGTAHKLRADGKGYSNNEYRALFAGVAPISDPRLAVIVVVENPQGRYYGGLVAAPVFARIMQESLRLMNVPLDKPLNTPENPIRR

What is called MIC50 is an inhibitory concentration at the 50% level, which refers to growth in some studies and to a panel of isolates in others. Higher therefore signals lower susceptibility. As a reminder, the MIC90 is an inhibitory concentration at the 90% level, which refers to growth in some studies and to a panel of isolates in others. As usually defined, the MIC is the least concentration at which growth counts as inhibited. A word on the MBC: it is the smallest concentration meeting the test's criterion for killing. Low readings indicate greater bactericidal potency, high ones weaker bactericidal potency. Usually IC50 stands for the concentration that inhibits the measured activity by half. With `O=C(O)c1c(F)ccc2c1OB(O)[C@@H]1C[C@H]21` [Xeruborbactam], the MIC50 with Enterobacterales (setting [10]) turned out to be 16 µg/mL (≈ 72.1 µM); in the assay with Serratia marcescens, 32 µg/mL (≈ 144 µM). The MIC90 with Enterobacterales (setting [10]) and against Serratia marcescens was 32 µg/mL (≈ 144 µM) each time. Further, the MIC range with Enterobacterales (setting [10]) lay within 2 to 64 µg/mL; against Serratia marcescens, 16 to 64 µg/mL. Moreover, the minimal inhibitory concentration (MIC) in the assay with Enterobacterales (read-out: modal MIC) was 16 µg/mL (≈ 72.1 µM); in the assay with Enterobacterales (wild-type strains of Escherichia coli or Klebsiella pneumoniae, read-out: antibacterial potency (MIC)) it was 8 to 16 µg/mL (≈ 36 to 72.1 µM). Also, the values for the MBC in assay [1] and in assay [2] were 8 µg/mL (≈ 36 µM) and 16 µg/mL (≈ 72.1 µM), respectively. In addition, the concentration for half-maximal inhibition (IC50) is 73 ± 10 µM at PBP3 [3] and 40 to 70 µM in assay [4].

In the case of `C[C@@H](O)[C@H]1C(=O)N2C(C(=O)O)=C(S[C@@H]3CN[C@H](C(=O)N(C)C)C3)[C@H](C)[C@H]12` [Meropenem], the IC50 on PBP1a [5] is 4.4 µM; at PBP1b [6] it was 3.4 µM; in the assay with PBP2 it was 3 nM; with PBP1b [7], 500 nM; at PBP3 [8], 330 nM; at PBP1a [9], 500 nM.
